Reference: ChEMBL document CHEMBL4725437, “P450s under Restriction (PURE) Screen Using HepaRG and Primary Human Hepatocytes for Discovery of Novel HBV Antivirals” (ACS Med Chem Lett, 2020)
The source made the active and inactive calls. The rule behind the calls is not given here.

How the values were obtained:
Cytochrome P450 3A4 [1] = molecular target: T1, Cytochrome P450 3A4 (Homo sapiens, UniProt P08684); assay: (§1) Inhibition of CYP3A4 in HBV-infected human primary hepatocytes at 5 to 100 uM using luciferin-IPA as substrate treated for 1 hr on day 5 post-infection followed by removal of media and supplemented with fresh media and further incubated for 3 days then followed by treatment for 1 hr on day 8 post-infection followed by removal of media and supplemented with fresh media and further incubated for 3 days and measured on day 11 post-infection by P450-Glo chemiluminescent assay; type: ADME, tissue-based, Primary hepatocyte; settings: dose 5-100 µM
T1 sequence (P08684 whole entry): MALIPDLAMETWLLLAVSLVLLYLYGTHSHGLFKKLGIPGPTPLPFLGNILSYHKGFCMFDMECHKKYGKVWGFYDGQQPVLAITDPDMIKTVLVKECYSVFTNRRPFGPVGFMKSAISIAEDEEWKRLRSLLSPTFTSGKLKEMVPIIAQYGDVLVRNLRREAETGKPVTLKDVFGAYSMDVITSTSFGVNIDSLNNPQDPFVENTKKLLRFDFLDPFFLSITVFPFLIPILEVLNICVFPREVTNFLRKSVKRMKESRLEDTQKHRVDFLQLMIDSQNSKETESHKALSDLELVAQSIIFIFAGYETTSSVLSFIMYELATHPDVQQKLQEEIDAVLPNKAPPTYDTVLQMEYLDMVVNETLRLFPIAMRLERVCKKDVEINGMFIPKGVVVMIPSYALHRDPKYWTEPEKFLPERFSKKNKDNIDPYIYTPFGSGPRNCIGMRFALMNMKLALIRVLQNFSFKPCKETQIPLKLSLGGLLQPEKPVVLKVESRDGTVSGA

CYP1A2 [2] = molecular target: T2, CYP1A2 (Homo sapiens, UniProt P05177); assay: (§2) Inhibition of CYP1A2 in HBV-infected human HepaRG cells at 50 uM using luciferin-1A2 as substrate treated for 1 hr on day 5 post-infection followed by removal of media and supplemented with fresh media and further incubated for 3 days by P450-Glo chemiluminescent assay relative to control; type: ADME, tissue-based; settings: probe luciferin-1A2
T2 sequence (P05177 whole entry): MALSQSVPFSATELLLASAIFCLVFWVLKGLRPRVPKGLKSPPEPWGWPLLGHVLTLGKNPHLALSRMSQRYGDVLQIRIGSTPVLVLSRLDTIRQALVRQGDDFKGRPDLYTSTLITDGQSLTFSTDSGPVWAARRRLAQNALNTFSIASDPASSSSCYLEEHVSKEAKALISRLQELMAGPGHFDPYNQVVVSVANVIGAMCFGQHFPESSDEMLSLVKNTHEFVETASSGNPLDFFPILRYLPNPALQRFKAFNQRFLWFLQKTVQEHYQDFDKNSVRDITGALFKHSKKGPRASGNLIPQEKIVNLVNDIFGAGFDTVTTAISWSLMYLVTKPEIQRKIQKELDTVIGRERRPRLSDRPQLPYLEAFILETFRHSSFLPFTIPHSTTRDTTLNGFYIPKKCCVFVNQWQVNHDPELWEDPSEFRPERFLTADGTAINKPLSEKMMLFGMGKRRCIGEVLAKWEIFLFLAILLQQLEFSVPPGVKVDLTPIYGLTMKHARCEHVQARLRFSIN

Cytochrome P450 1A2 [3] = molecular target: T3, Cytochrome P450 1A2 (Homo sapiens, UniProt P05177); assay: as §1, with “CYP1A2” for “CYP3A4”, “hepatocytes cells” for “hepatocytes”, “luciferin-1A2” for “luciferin-IPA”; type: ADME, tissue-based, Primary hepatocyte; settings: dose 5-100 µM
T3 sequence (P05177 whole entry): T2 sequence (P05177 whole entry)

CYP3A4 [4] = molecular target: T4, CYP3A4 (Homo sapiens, UniProt P08684); assay: (§3) Inhibition of CYP3A4 in HBV-infected human HepaRG cells at 50 uM using luciferin-IPA as substrate treated for 1 hr on day 5 post-infection followed by removal of media and supplemented with fresh media and further incubated for 3 days then followed by treatment for 1 hr on day 8 post-infection followed by removal of media and supplemented with fresh media and further incubated for 3 days in presence of 10 mM ABT and measured on day 11 post-infection by P450-Glo chemiluminescent assay relative to control; type: ADME, tissue-based; settings: probe luciferin-IPA, with ABT 10 mM
T4 sequence (P08684 whole entry): as the sequence (P08684 whole entry) above

CYP1A2 [5] = molecular target: T2, CYP1A2; assay: as §2, with “days in presence of 10 mM ABT” for “days”; type: ADME, tissue-based; settings: probe luciferin-1A2, with ABT 10 mM
CYP2C9 [6] = molecular target: T5, CYP2C9 (Homo sapiens, UniProt P11712); assay: as §2, with “CYP2C9” for “CYP1A2”, “luciferin-H” for “luciferin-1A2”, “days in presence of 10 mM ABT” for “days”; type: ADME, tissue-based; settings: probe luciferin-H, with ABT 10 mM
T5 sequence (P11712 whole entry): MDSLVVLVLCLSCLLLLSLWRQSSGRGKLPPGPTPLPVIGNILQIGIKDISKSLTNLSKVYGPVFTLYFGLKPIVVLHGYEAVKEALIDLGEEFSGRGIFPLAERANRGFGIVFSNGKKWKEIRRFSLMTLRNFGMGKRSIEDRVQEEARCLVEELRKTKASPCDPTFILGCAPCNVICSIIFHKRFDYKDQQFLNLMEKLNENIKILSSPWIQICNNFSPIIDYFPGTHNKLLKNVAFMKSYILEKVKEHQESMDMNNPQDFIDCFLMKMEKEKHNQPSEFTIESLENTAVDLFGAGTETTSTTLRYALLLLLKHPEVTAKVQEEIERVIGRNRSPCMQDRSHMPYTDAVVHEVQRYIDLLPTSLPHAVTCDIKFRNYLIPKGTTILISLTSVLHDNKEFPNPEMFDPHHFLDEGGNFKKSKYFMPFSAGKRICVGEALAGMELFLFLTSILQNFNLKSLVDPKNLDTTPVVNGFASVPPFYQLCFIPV

HepaRG [7] = assay: Cytotoxicity against human HepaRG cells infected with HBV assessed as reduction in cell viability at 5 to 100 uM treated for 1 hr on day 5 post-infection followed by removal of media and supplemented with fresh media and further incubated for 3 days then followed by treatment for 1 hr on day 8 post-infection followed by removal of media and supplemented with fresh media and further incubated for 3 days and measured on day 11 post-infection by Celltiter-Glo assay; type: cell-based; settings: dose 5-100 µM
CYP2C9 [8] = molecular target: T5, CYP2C9; assay: as §3, with “CYP2C9” for “CYP3A4”, “luciferin-H” for “luciferin-IPA”; type: ADME, tissue-based; settings: probe luciferin-H, with ABT 10 mM
Cytochrome P450 1A2 [9] = molecular target: T3, Cytochrome P450 1A2; assay: as §1, with “CYP1A2” for “CYP3A4”, “HepaRG cells” for “primary hepatocytes”, “luciferin-1A2” for “luciferin-IPA”; type: ADME, tissue-based; settings: dose 5-100 µM
Hepatocyte = assay: (§4) Cytotoxicity against human primary hepatocytes infected with HBV assessed as reduction in cell viability at 50 uM treated for 1 hr on day 5 post-infection followed by removal of media and supplemented with fresh media and further incubated for 3 days then followed by treatment for 1 hr on day 8 post-infection followed by removal of media and supplemented with fresh media and further incubated for 3 days in presence of 10 mM ABT and measured on day 11 post-infection by Celltiter-Glo assay relative to control; type: cell-based
Hepatitis B virus [10] = assay: (§5) Antiviral activity against Hepatitis B virus infected in human primary hepatocytes assessed as reduction in HbsAg secretion level at 25 uM treated for 1 hr on day 5 post-infection followed by removal of media and supplemented with fresh media and further incubated for 3 days then followed by treatment for 1 hr on day 8 post-infection followed by removal of media and supplemented with fresh media and further incubated for 3 days in presence of 10 mM ABT and measured on day 11 post-infection by chemiluminescence immunostaining assay; type: functional, Primary hepatocyte; parameters: scale not given: the % may be the effect or the level left
Hepatitis B virus [11] = assay: as §5, with “in human HepaRG cells assessed as” for “in human primary hepatocytes assessed as”, “level at 50 uM treated” for “level at 25 uM treated”, “for 3 B37days then followed” for “for 3 days then followed”; type: functional, organism-based
HepaRG [12] = assay: as §4, with “HepaRG cells” for “primary hepatocytes”, “assay” for “assay relative to control”; type: cell-based
CYP1A2 [13] = molecular target: T2, CYP1A2; assay: as §2, with “days then followed by treatment for 1 hr on day 8 post-infection followed by removal of media and supplemented with fresh media and further incubated for 3 days and measured on day 11 post-infection” for “days”; type: ADME, tissue-based; settings: probe luciferin-1A2
CYP3A4 [14] = molecular target: T4, CYP3A4; assay: Inhibition of CYP3A4 in HBV-infected human HepaRG cells at 50 uM using luciferin-IPA as substrate treated for 1 hr on day 5 post-infection followed by removal of media and supplemented with fresh media and further incubated for 3 days in presence of 10 mM ABT by P450-Glo chemiluminescent assay relative to control; type: ADME, tissue-based; settings: probe luciferin-IPA, with ABT 10 mM
CYP3A4 [15] = molecular target: T4, CYP3A4; assay: Inhibition of CYP3A4 in HBV-infected human HepaRG cells at 50 uM using luciferin-IPA as substrate treated for 1 hr on day 5 post-infection followed by removal of media and supplemented with fresh media and further incubated for 3 days by P450-Glo chemiluminescent assay relative to control; type: ADME, tissue-based; settings: probe luciferin-IPA
CYP1A2 [16] = molecular target: T2, CYP1A2; assay: as §3, with “CYP1A2” for “CYP3A4”, “luciferin-1A2” for “luciferin-IPA”; type: ADME, tissue-based; settings: probe luciferin-1A2, with ABT 10 mM
CYP3A4 [17] = molecular target: T4, CYP3A4; assay: as §3, with “days” for “days in presence of 10 mM ABT”; type: ADME, tissue-based; settings: probe luciferin-IPA
Cytochrome P450 3A4 [18] = molecular target: T1, Cytochrome P450 3A4; assay: as §1, with “HepaRG cells” for “primary hepatocytes”; type: ADME, tissue-based; settings: dose 5-100 µM
CYP2C9 [19] = molecular target: T5, CYP2C9; assay: (§6) Inhibition of CYP2C9 in HBV-infected human HepaRG cells at 50 uM using luciferin-H as substrate treated for 1 hr on day 5 post-infection followed by removal of media and supplemented with fresh media and further incubated for 3 days by P450-Glo chemiluminescent assay relative to control; type: ADME, tissue-based; settings: probe luciferin-H
Hepatitis B virus [20] = assay: as §5, with “50” for “25”, “assay relative to control” for “assay”; type: functional, organism-based; settings: Primary hepatocyte
Cytochrome P450 2C9 [21] = molecular target: T6, Cytochrome P450 2C9 (Homo sapiens, UniProt P11712); assay: as §1, with “CYP2C9” for “CYP3A4”, “HepaRG cells” for “primary hepatocytes”, “luciferin-H” for “luciferin-IPA”; type: ADME, tissue-based; settings: dose 5-100 µM
T6 sequence (P11712 whole entry): as above

Cytochrome P450 2C9 [22] = molecular target: T6, Cytochrome P450 2C9; assay: as §1, with “CYP2C9” for “CYP3A4”, “luciferin-H” for “luciferin-IPA”; type: ADME, tissue-based, Primary hepatocyte; settings: dose 5-100 µM
CYP2C9 [23] = molecular target: T5, CYP2C9; assay: as §6, with “days then followed by treatment for 1 hr on day 8 post-infection followed by removal of media and supplemented with fresh media and further incubated for 3 days and measured on day 11 post-infection” for “days”; type: ADME, tissue-based; settings: probe luciferin-H

CCCC(C(=O)OCCN(CC)CC)(c1ccccc1)c1ccccc1 [PROADIFEN]
inhibition (INH) (Cytochrome P450 3A4 [1]): Active
inhibition at 1 h, 50 µM (CYP1A2 [2]): 2.2%
inhibition (INH) (Cytochrome P450 1A2 [3]): Active
inhibition at 1 h, 50 µM (CYP3A4 [4]): 90.3%
inhibition at 1 h, 50 µM (CYP1A2 [5]): 39.2%
inhibition at 1 h, 50 µM (CYP2C9 [6]): 36.9%
Activity (HepaRG [7]): Non-Toxic
inhibition at 1 h, 50 µM (CYP2C9 [8]): 82.1%
inhibition (INH) (Cytochrome P450 1A2 [9]): Active
Activity (Hepatocyte): 10%
Activity (Hepatitis B virus [10]): 20%
Activity (Hepatitis B virus [11]): inactive
Activity (HepaRG [12]): Non-Toxic
inhibition at 1 h, 50 µM (CYP1A2 [13]): 30.8%
inhibition at 1 h, 50 µM (CYP3A4 [14]): 83.3%
inhibition at 1 h, 50 µM (CYP3A4 [15]): 80.3%
inhibition at 1 h, 50 µM (CYP1A2 [16]): 88.8%
inhibition at 1 h, 50 µM (CYP3A4 [17]): 93%
inhibition (INH) (Cytochrome P450 3A4 [18]): Active
inhibition at 1 h, 50 µM (CYP2C9 [19]): 21.4%
Activity (Hepatitis B virus [20]): inactive
inhibition (INH) (Cytochrome P450 2C9 [21]): Active
inhibition (INH) (Cytochrome P450 2C9 [22]): Active
inhibition at 1 h, 50 µM (CYP2C9 [23]): 42.2%
